Data published in patent publication US20230067593A1, “NANOFORMULATIONS OF METHYL {4,6-DIAMINO-2-[5-FLUORO-1-(2-FLUOROBENZYL)-1H-PYRAZOLO[3,4-B]PYRIDIN-3 -YL]PYRIMIDIN-5-YL} CARBAMATE” (ADVERIO PHARMA GMBH, priority 2020, published 2023).

Test: Screening experiments of nanosuspensions with different stabilizers (wet bead milling, planetary mill)
Format: physicochemical
Settings: wet bead milling process according to Examples 1-3
Protocol: Most of the screening experiments of Example 1 were done in a planetary ball mill (PBM) of type Pulverisette 5. For sample preparation, the micronized compound of the formula (I) was predispersed in aqueous polymer surfactant solution and transferred into the grinding chamber (PET 23ml) which was filled with milling beads. The water contained in the solution was used as dispersing agent. As grinding media (0.4 - 0.6 mm) the Silibeads® zirconium oxide (yttrium stabilized) with a bulk density of 3.9 kg/l from Sigmund Lindner (Germany) were used. The milling beads fill level was 60% of the grinding chamber volume. Care was taken not to leave any air inclusions in the grinding chamber, as this would have a negative effect on the grinding process. The grinding time was 90 minutes at 400 rotations per minute. Four grinding chambers could be fed into the PBM per grinding operation. Thus, after separation of the grinding media, about 40 - 45 g suspension per grinding process could be produced.
The compound of formula (I) in crystalline form of modification I was produced according to example 13, method E of WO 2013/076168. Before nanomilling, the compound of formula (I) in crystalline form of modification I was micronized. For the screening experiments many different formulations were tested. For these experiments the duration of milling was 60 min. […]

- d50 after milling: < 200 nm
Compound: COC(=O)Nc1c(N)nc(-c2nn(Cc3ccccc3F)c3ncc(F)cc23)nc1N [Vericiguat, methyl {4,6-diamino-2-[5-fluoro-1-(2-fluorobenzyl)-1H-pyrazolo[3,4-b]pyridin-3-yl]pyrimidin-5-yl}carbamate]
